Laboratory results published in a melting point compilation (Tetko et al.; mined from patent text by program, amines drawn as free bases though some values may be those of a salt).

melting point [°C]	SMILES
157 to 159	CC(C)N(CCN1C(=O)/C(=N/NC(=O)Nc2ccccc2)c2ccccc21)C(C)C
214 to 216	Cc1c(C(=O)O)ccc(Oc2cccnc2)c1S(C)(=O)=O
158 to 160	CCCCOCCOc1ccc(-c2ccc3c(c2)C=C(C(=O)Nc2ccc([C@H](O)c4ccccn4)cc2)CCN3S(C)(=O)=O)cc1
83.9	O=C(c1cccs1)C1CCN(Cc2ccccc2)CC1
185 to 186	O=C(O)c1cc(-c2cccc(C(F)(F)F)c2)nc(C(F)(F)F)c1
59 to 62	CC(O)(C(=O)NCCC(F)(F)F)C(=O)NC1C(=O)N(CCO)c2ccccc2-c2ccccc21 (centres undefined)
172 to 174	CC(C)(C)c1cc(C(=O)NCC(=O)O)ccc1OCc1ccccc1
138 to 140	CCCCN1CCN(Cc2ccc(COc3cccc4c3CN(C3CCC(=O)NC3=O)C4=O)cc2)CC1=O (centres undefined)
135	Cc1ccc(CN2CCN(C3=NC4(C=CC(=O)C=C4)C(c4ccccc4)=C3)CC2)cc1
196 to 198	Clc1cc(Nn2cccc2)ncn1
91 to 93	CCS(=O)(=O)N(C)C1CC(C)(C)Oc2ccc(OCc3ccccc3)cc21 (centres undefined)
117 to 118	CC(C(O)C=Cc1ccc(Cl)cc1)n1cncn1 (centres undefined)
151 to 153	CCOC(=O)c1c[nH]c2cccc(O)c12
153 to 154	CCOC(=O)c1nc(-c2ccccc2)c(-c2ccc(=O)n(C(C)C)n2)s1
257 to 260	CCOC(=O)C1=C(C)NC2=C(C(=O)OC2)C1c1cccc2ncc(-c3ccccc3)cc12 (centres undefined)
87	N#CC(Cl)=C(Cl)SC(Cl)=C(Cl)C#N
33 to 37	CCCCCCCCCC(N)CCCCCCCCC(N)CCCCCCCCC (centres undefined)
131 to 135	CCCCCCCCCCCCCCOc1ccc2cc(C(=O)O)oc2c1
231 to 232	CNC(=O)c1cc(-c2ccc(OC)cc2)nn(CC(=O)Nc2ccc(SC)cc2)c1=O
201	COc1cc(C)c2[nH]ccc2c1C(C)(N)c1nc2cc(C#N)ccc2[nH]1 (single isomer, unassigned; (-))
79 to 80	N#Cc1cc(Cc2ccccc2Cl)ccc1N
161 to 163	COc1nc(C)cc(C(=O)O)n1
135 to 136	CCC(=O)c1c(O)cccc1O
84 to 85	CCCCc1nn(-c2ccc(C(F)(F)F)cn2)cc1/C=C/C(=O)OCC
143 to 144	Cc1oc(-c2ccccc2)nc1CCOc1ccc(CCc2nnn[nH]2)cc1

melting point [°C]	SMILES
133 to 134	O=C1c2ccccc2C(O)N1CCCl (centres undefined)
264 to 266	CC1(C)OC(=O)Nc2ccc(-c3ccc(C#N)s3)cc21
59.5 to 61.5	O=S(=O)(F)Cc1ccc(F)c(Oc2ccccc2)c1
137 to 139	CCOC(=O)c1c(N2CCNCC2)c2ccc(C)nc2n(CC)c1=O
107 to 108	CCSc1cc(C)nc(SCC)c1NC(=O)CN1CCN(CCSc2nc3cccc(C(F)(F)F)c3o2)CC1
265 to 270	Cc1c(-c2ccccc2)sc2nc(NC3CCCCC3)[nH]c(=O)c12
113 to 115	CC(C)(C)NC(=O)[C@@H]1CC(Cl)CN1C(=O)C(O)[C@H](Cc1ccccc1)NC(=O)[C@H](CC(N)=O)NC(=O)COc1ccc(NC(=O)OCc2ccccc2)cc1 (some centres undefined)
234 to 236	COc1ccccc1S(=O)(=O)NC(=O)c1ccc(C(=O)O)nc1
233	FC(F)(F)c1ccc(-c2cc(Nc3ccc4ccc(Cl)nc4c3)ncn2)cc1
> 250	O=C1Nc2cccnc2C12COc1cc3c(cc12)OCCO3 (centres undefined)
127 to 129	COc1cc(C(=O)C=Cc2ccncc2)cc(OC)c1OC
70	CCCC(=O)c1cc(-c2ccccc2)ns1
119 to 122	N=C(N)NCCOc1ccc2c(c1)CC(CCC(=O)O)C(=O)N2 (centres undefined)
167 to 170	CC(C)(Oc1ccc2c(c1)CCc1c-2ccc2c1CCC2(C)C)C(=O)O
210 to 212	N#Cc1cc2c(-c3cccc(NC(=O)c4cccc(C(F)(F)F)c4)c3)ncnc2s1
68 to 70	Cc1ccc([N+](=O)[O-])c(OC2CCOC2=O)c1 (centres undefined)
115 to 117	COC(=N)NC(=O)Nc1ccc(Cl)cc1
130 to 132	COc1cc2ccccc2cc1C(=O)O
> 250	COc1ccc2c(c1)CCCC2(N)C(=O)O (centres undefined)
50 to 54	O=C1C(c2cccc(Br)c2)n2cncc2CN1Cc1cccnc1 (centres undefined)
173 to 176	Cc1ccc2c(n1)C(=O)N(c1c(Cl)ccc(C)c1C#N)C2=O
165 to 167	CC(C)c1ccc2c(c1)C(=O)CC21CNC(=O)C1 (centres undefined)
83 to 84	C#CCN(C)C(=S)Nc1ccccc1CC(=O)OC
48.5 to 50	CCCCc1nc(CCC)n[nH]1
> 300	CCNc1nc(C)c(-c2ccnc(Nc3cc(Cl)c(N4CCOCC4)c(Cl)c3)n2)s1

melting point [°C]	SMILES
206 to 207	Cc1csc(N2CCN(Cc3ccc(C(=O)Nc4ccc(F)cc4)cc3)C2=O)n1
242 to 243	CCOC(=O)C1=C(c2ccc(-n3c(C)nc4cnccc43)nc2)NC(C)=C(C(=O)Nc2ccccn2)C1c1ccccc1Cl (centres undefined)
170	CCC(=NNC(=O)OC(C)(C)C)c1ccncc1
82 to 83	CCOC(=O)CCc1cn(Cc2cc(OCc3nc(-c4ccccc4)oc3C)no2)nc1OCC
136 to 137	O=C(NCCO)c1cccc(-c2cccc3cn(Cc4cccc(C(F)(F)F)c4)nc23)c1
269 to 273	CNc1nccc2c1nnn2Cc1ccccc1
235 to 237	CC1(C)Oc2ccc(C#N)cc2C(NC(=O)Nc2ccc3c(c2)CCC3)C1O (centres undefined)
76 to 78	COC(=O)/C=C/c1c(OC)cccc1OC
135 to 137	CC(C)(C)c1cc(-c2nn(CCO)c3ncccc23)cc(C(C)(C)C)c1O
89 to 90	CCOC(=O)C(=CNC1CC1)C(=O)c1cc(F)c(Cl)cc1Cl
183 to 184	O=C(NC(=O)c1c(F)cccc1F)Nc1ccc2c(c1)C(F)(F)C(F)(F)O2
63.3 to 64	COc1ccc(C=CC(=O)c2cccc(OC)c2OC)cc1Oc1ccccc1
164 to 165	Cc1cn(C2CC(F)C(CO)O2)c(=S)[nH]c1=S (centres undefined)
115 to 116	O=C(CCCCl)c1ccc2c(c1)Cc1cc(C(=O)CCCCl)ccc1S2
103	COc1ccc2nc(CBr)ccc2c1
103 to 106	CC(C)(CCl)C(=O)N(O)Cc1ccc(Cl)cc1Cl
242 to 246	O=C1NC(N2CCN(c3cnccn3)CC2)c2ccccc21 (centres undefined)
135 to 137	N#CC(=C1CCCN1)c1ccc(Cl)cc1
128 to 130	CC(=C(c1ccccc1)c1ccccc1)P(c1ccccc1)c1ccccc1
108 to 110	CCOC(=O)CCCn1c(=O)n(CCN2CCN(c3ccccc3OC)CC2)c(=O)c2cscc21
128 to 130	CC(C)(C)OC(=O)N1CCCN(c2ccc([N+](=O)[O-])cc2)CC1
101 to 102	CC(C)C1CCC(C)(OC(=O)OC2(C)CCC(C(C)C)CC2)CC1 (centres undefined)
241 to 244	CC(C)NC(=O)N1CCC(F)(Cc2c3c(nn2C)c(N)nc2ccccc23)CC1
136 to 138	CCOC(=O)c1c(Cl)c2cc(Oc3ccc(C(F)(F)F)cc3)ccc2n1-c1ccc(OC(C)C)cc1
> 275	CNc1nc(-c2ccccc2)c(-c2nc3ccccc3c(=O)n2-c2ccc(Cl)cc2)s1

melting point [°C]	SMILES
124 to 126	COc1ccc(-n2c3ccccc3c3cc(C=C(C#N)c4ccc(F)c(F)c4F)ccc32)cc1
165 to 172	CC(C)Cn1c(CN2CCOCC2)nc2c(N)nc3c(c21)CCCC3
262 to 264	Cc1n[nH]c(-c2ccc(Br)cc2)c1NC(=O)c1cccnc1
170 to 171	CN1CCC(N=[N+]=[N-])(c2ccccc2)C(O)C1 (centres undefined)
83	COc1cc(NC(C)=O)ccc1N1C(=O)C(C)(c2ccccc2Cl)c2cc(Cl)ccc21 (centres undefined)
103 to 104	N#CSc1nc(Cl)ncc1F
194 to 196	COc1ccc(C2(C#N)CCC(C(=O)O)CC2)c2c1oc1ccccc12 (centres undefined)
78 to 79	Cc1ccccc1Oc1nc(Cl)cc(Cl)n1
110 to 111	O=C(O)CCc1cnoc1-c1cccc(Cl)c1
216 to 218	Cc1ncc2c(c1C(=O)O)COc1ccccc1C2=O
77 to 80	CCOC(=O)[C@@H](NS(=O)(=O)c1ccc(N2CCC(=O)CC2)cc1)C(C)C
128 to 131	CC=C1c2ccccc2CC(=NO)c2ccccc21
162 to 164	C=Cc1ccc(CN2CCNCCN(Cc3ccc(C=C)cc3)CC2)cc1
97 to 98	Cc1[nH]cnc1CSCCNC(=O)NCCCCN(C)CCC(c1ccc(Cl)cc1)c1ccccn1 (centres undefined)
53 to 55	Clc1nccnc1Oc1ccc(Oc2ccccc2)cc1
91	Oc1ccc(Nc2nc(Cl)nc(NC3CCCCCC3)n2)cc1Cl
180 to 181	COc1ccc(OC)c(-c2cn(N=Cc3ccccc3)c(N)n2)c1
173 to 174	Cn1nc(-c2ccncc2)c2ccccc2c1=O
208 to 212	O=C(O)C1=Cc2cc(S(=O)(=O)Cl)ccc2OC1C(F)(F)F (centres undefined)
170 to 172	Cc1cc(Cl)ncc1C(=O)O
118 to 119	C[Si](C)(C)CCCCCNC(=O)n1cc(F)c(=O)[nH]c1=O
118 to 119	CC1(C)Cc2sccc2C1N=CNC#N (centres undefined)
116 to 117	CCCCN(CCCC)c1nnc(N)s1
54 to 57	COC(=O)Cc1ccc(S(C)(=O)=O)c(Cl)c1

SMILES	melting point [°C]
O=C(c1nn(-c2ccc(F)cc2F)c2c1C1CCC2C1)N1CCCc2ccccc21 (centres undefined)	103 to 107
O=C(N[C@H]1CN2CCC1CC2)C(O)(c1ccccc1)C1CCCC1 (some centres undefined)	69.8 to 73.3
CCc1cc(CNc2nc3ccccc3o2)c(=S)[nH]c1C	238 to 240
O=C1CCN(C(=O)c2cc(-c3ccccc3)c(=O)n3c2-c2sccc2CC3)CC1	218 to 220
COC(=O)[C@@H]1[C@@H](O[Si](C)(C)C(C)(C)C)CCN1C(=O)Nc1ccc(C#N)c(Cl)c1C	123 to 125
